The text below walks through data of paper PMC10537280, “Chemo-/Regio-Selective Synthesis of Novel Functionalized Spiro[pyrrolidine-2,3′-oxindoles] under Microwave Irradiation and Their Anticancer Activity” (Molecules, 2023).

The test system of series [1] is immortalized lung BEAS-2B normal cell lines. Description: MTT cytotoxicity assay, normal lung BEAS-2B cells. The class given is cell-based. Particulars: Homo sapiens, MTT, 72 h, 0.19–100 μM, normal lung cells, read-out: BEAS-2B Cells IC50. As for the experimental part: (§1) Adenocarcinomic human alveolar basal epithelial (A549) and human hepatoma (HepG2) cancer cell lines, immortalized normal human liver (LO2), human bronchial epithelial (BEAS-2B cells were purchased from [NT], Manassas, VA, USA). […] Invitrogen, Waltham, MA, USA). All cells were incubated at 37 °C in a 5% humidified CO2 incubator). All test compounds were dissolved in DMSO at a final concentration of 50 mM and stored at -20 °C before use. Cytotoxicity was assessed by the MTT (5 mg/mL) assay, as described previously. Briefly, 5 × 10^3 cells per well were seeded in 96-well plates before drug treatments. […] Cells without drug treatment were used as controls. Subsequently, 10 μL of 5 mg/mL MTT solution was added to each well and incubated at 37 °C for 4 h, followed by the addition of 100 μL solubilization buffer (12 mM HCl in a solution of 10% SDS) and overnight incubation. The absorbance, A570 nm, was then determined in each well on the next day. The percentage of cell viability was calculated using the expression: % viability = Atreated/Acontrol × 100, and was given as cytotoxicity (Table 2 and Table 3; […]

The subject of series [2] is immortalized liver LO2 normal cell lines. Description: MTT cytotoxicity assay, normal liver LO2 cells. To be noted: Homo sapiens, L02; MTT, 72 h, 0.19–100 μM; normal liver cells; read-out: LO2 Cells IC50. The class given is cell-based. As for the experimental part: as §1
Series [3] relates to human lung A549 cancer cell lines. Description: MTT cytotoxicity assay, lung cancer A549 cells. Type of series: cell-based. Particulars: for IC50: Homo sapiens, A549, MTT, 72 h, 0.19–100 μM, means of at least three independent experiments in duplicates, read-out: A549 Cells IC50. As for the experimental part:
as §1
On the technique in general: Tetrazolium dyes change colour on reduction, which living cells bring about.

Series [4] has as its system human HepG2 cancer cell lines. Nature of the series: MTT cytotoxicity assay, liver cancer HepG2 cells. The class given is cell-based. Particulars: for IC50: MTT, 72 h, 0.19–100 μM, means of at least three independent experiments in duplicates, read-out: HepG2 Cells IC50; for S.I. Selectivity index liver (IC50 normal cells/IC50 cancer cells): LO2 IC50 / HepG2 IC50. As for the experimental part:
as §1

In series [5] the test system is human HepG2 cancer cell lines. Particulars: paclitaxel reference value; ref [82]; read-out: HepG2 Cells IC50; cited from earlier work.
Series [6] has as its system immortalized liver LO2 normal cell lines. To be noted: paclitaxel reference value; ref [82]; read-out: LO2 Cells IC50; cited from earlier work.
The subject of series [7] is human lung A549 cancer cell lines. Also on record: method as in PMID 24063429. Particulars: paclitaxel reference value; ref [80]; read-out: A549 Cells IC50; cited from earlier work.
The subject of series [8] is immortalized lung BEAS-2B normal cell lines. Also on record: method as in PMID 24063429. To be noted: paclitaxel reference value; ref [80]; read-out: BEAS-2B Cells IC50; cited from earlier work.

The IC50 is the concentration that gives 50% inhibition. As usually defined, the melting point is the temperature, or range, at which the solid turns liquid.

The structures appear in SMILES notation. Like-named read-outs stand apart in the source and are kept apart here.

`COc1cc(C2C([N+](=O)[O-])C3CCCN3C23C(=O)Nc2ccccc23)ccc1OCc1ccccc1` (stereo not shown) [Compound 4n, 2′-(4-(benzyloxy)-3-methoxyphenyl)-1′-nitro-1′,2′,5′,6′,7′,7a′-hexahydrospiro[indoline-3,3′-pyrrolizin]-2-one]: the melting point lay within 66 to 68 °C. Moreover, the IC50 in series [1] was more than 100 µM. For the same compound, the 50% inhibitory concentration (IC50) in [2] is more than 100 µM. In series [3], the IC50 is more than 100 µM. Moreover, the IC50 in series [4] (Homo sapiens, HepG2, 72 h) is more than 100 µM.

Turning to `COc1cc(C2C([N+](=O)[O-])C3CCCN3C23C(=O)Nc2ccc(Br)cc23)ccc1OCc1ccccc1` (stereo not shown) [Compound 4o, 2′-(4-(benzyloxy)-3-methoxyphenyl)-5-bromo-1′-nitro-1′,2′,5′,6′,7′,7a′-hexahydrospiro[indoline-3,3′-pyrrolizin]-2-one], the melting point lay within 95 to 97 °C. The IC50 in [1] is more than 100 µM. The concentration for half-maximal inhibition (IC50) in series [2] was more than 100 µM. In series [3], the concentration for half-maximal inhibition (IC50) is more than 100 µM. Also, the half-maximal inhibitory concentration (IC50) in series [4] (Homo sapiens, HepG2, 72 h) is more than 100 µM.

Turning to `COc1ccc(C2C([N+](=O)[O-])C3CCCN3C23C(=O)Nc2ccccc23)cc1OCc1ccccc1` (stereo not shown) [Compound 4p, 2′-(3-(benzyloxy)-4-methoxyphenyl)-1′-nitro-1′,2′,5′,6′,7′,7a′-hexahydrospiro[indoline-3,3′-pyrrolizin]-2-one], the melting point is 83 to 85 °C. The 50% inhibitory concentration (IC50) in series [1] is more than 100 µM. The IC50 in [2] was more than 100 µM. Besides, in [3], the 50% inhibitory concentration (IC50) is more than 100 µM. In addition, the concentration for half-maximal inhibition (IC50) in series [4] (Homo sapiens, HepG2, 72 h) was more than 100 µM.

Compound `COc1ccc(C2C([N+](=O)[O-])C3CCCN3C23C(=O)Nc2ccc(Br)cc23)cc1OCc1ccccc1` (stereo not shown) [Compound 4q, 2′-(3-(benzyloxy)-4-methoxyphenyl)-5-bromo-1′-nitro-1′,2′,5′,6′,7′,7a′-hexahydrospiro[indoline-3,3′-pyrrolizin]-2-one] displayed a melting point of 98 to 100 °C. For the same compound, the IC50 in series [1] was more than 100 µM. Moreover, the IC50 in series [2] turned out to be 46.8 µM. Also, the IC50 in series [3] worked out at 47.9 µM. Moreover, the IC50 in series [4] (Homo sapiens, HepG2, 72 h) stood at 85.6 µM. In [4], the “S.I. Selectivity index liver (IC50 normal cells/IC50 cancer cells)” value worked out at 0.54 and the 50% inhibitory concentration (IC50) came to 86.5 µM.

As for `COc1ccc(C2C([N+](=O)[O-])C3CCCN3C23C(=O)Nc2ccccc23)cc1` (stereo not shown) [Compound 4r, 2′-(4-methoxyphenyl)-1′-nitro-1′,2′,5′,6′,7′,7a′-hexahydrospiro[indoline-3,3′-pyrrolizin]-2-one], the melting point lay within 116 to 118 °C. Also, in [1], the IC50 was more than 100 µM. Besides, the half-maximal inhibitory concentration (IC50) in [2] was more than 100 µM. Further, the IC50 in series [3] is more than 100 µM. In addition, the half-inhibitory concentration (IC50) in [4] (Homo sapiens, HepG2, 72 h) was more than 100 µM.

Consider `COc1ccc(OC)c(C2C([N+](=O)[O-])C3CCCN3C23C(=O)Nc2ccccc23)c1` (stereo not shown) [Compound 4s, 2′-(2,5-dimethoxyphenyl)-1′-nitro-1′,2′,5′,6′,7′,7a′-hexahydrospiro[indoline-3,3′-pyrrolizin]-2-one], for which the melting point was 174 to 176 °C. Also, the IC50 in [1] is more than 100 µM. Further, the IC50 in series [2] was more than 100 µM. The IC50 in series [3] is more than 100 µM. The half-inhibitory concentration (IC50) in series [4] (Homo sapiens, HepG2, 72 h) is more than 100 µM.

`COc1cccc(C2C([N+](=O)[O-])C3CCCN3C23C(=O)Nc2ccc(Br)cc23)c1` (stereo not shown) [Compound 4t, 5-bromo-2′-(3-methoxyphenyl)-1′-nitro-1′,2′,5′,6′,7′,7a′-hexahydrospiro[indoline-3,3′-pyrrolizin]-2-one] yielded a melting point of 145 to 147 °C. The IC50 in [1] worked out at 67.7 µM. Besides, in series [2], the concentration for half-maximal inhibition (IC50) came out at 45.5 µM. Also, the “S.I. Selectivity index lung (IC50 normal cells/IC50 cancer cells)” value in series [3] (BEAS-2B IC50 / A549 IC50) stood at 1.50. In addition, the half-inhibitory concentration (IC50) in series [3] worked out at 45.2 µM. Further, the IC50 in series [4] (Homo sapiens, HepG2, 72 h) was 46.1 µM. Further, in series [4], the “S.I. Selectivity index liver (IC50 normal cells/IC50 cancer cells)” value is 0.99.

For `COc1ccc(OC)c(C2C([N+](=O)[O-])C3CCCN3C23C(=O)Nc2ccc(Br)cc23)c1` (stereo not shown) [Compound 4u, 5-bromo-2′-(2,5-dimethoxyphenyl)-1′-nitro-1′,2′,5′,6′,7′,7a′-hexahydrospiro[indoline-3,3′-pyrrolizin]-2-one], the melting point is 190 to 192 °C. Further, the IC50 in series [1] was more than 100 µM. Moreover, the IC50 in series [2] is more than 100 µM. Also, the IC50 in series [3] is more than 100 µM. Moreover, in series [4] (Homo sapiens, HepG2, 72 h), the IC50 is more than 100 µM.

With `COc1ccc(C2C([N+](=O)[O-])C3CCCN3C23C(=O)Nc2ccccc23)cc1OC` (stereo not shown) [Compound 4v, 2′-(3,4-dimethoxyphenyl)-1′-nitro-1′,2′,5′,6′,7′,7a′-hexahydrospiro[indoline-3,3′-pyrrolizin]-2-one], the melting point is 175 to 177 °C. Further, the IC50 in series [1] was more than 100 µM. For the same compound, the concentration for half-maximal inhibition (IC50) in series [2] was more than 100 µM. Also, in series [3], the IC50 was more than 100 µM. In addition, the IC50 in series [4] (Homo sapiens, HepG2, 72 h) was more than 100 µM.

Take `COc1ccc(C2C([N+](=O)[O-])C3CCCN3C23C(=O)Nc2ccc(Br)cc23)cc1OC` (stereo not shown) [Compound 4w, 5-bromo-2′-(3,4-dimethoxyphenyl)-1′-nitro-1′,2′,5′,6′,7′,7a′-hexahydrospiro [indoline-3,3′-pyrrolizin]-2-one]: the melting point lay within 195 to 197 °C. Besides, in series [1], the half-maximal inhibitory concentration (IC50) is more than 100 µM. In addition, in [2], the IC50 was more than 100 µM. In addition, in [3], the IC50 was more than 100 µM. Moreover, the concentration for half-maximal inhibition (IC50) in series [4] (Homo sapiens, HepG2, 72 h) is more than 100 µM.

For the compound `CC(=O)O[C@H]1C(=O)[C@@]2(C)[C@H]([C@H](OC(=O)c3ccccc3)[C@]3(O)C[C@H](OC(=O)[C@H](O)[C@@H](NC(=O)c4ccccc4)c4ccccc4)C(C)=C1C3(C)C)[C@]1(OC(C)=O)CO[C@@H]1C[C@@H]2O` [Paclitaxel], the IC50 was 0.19 ± 0.4 µM in [5], less than 0.1 µM in series [6], 0.003 µM in series [7] and 0.1 µM in series [8].
